Data on eleven compounds can be found in patent US11420966B2 (ACLARIS THERAPEUTICS, INC., priority 2019, dated 2022).

Molecules are shown by their SMILES. Structures can show the parent of a compound that is named as a salt.

In one experiment the target is JAK1 (Homo sapiens (Human), UniProt P23458). In words: JAK1 enzyme activity assay (Thermo Fisher SelectScreen, Z-lyte). Format: biochemical. The conditions noted are these: read-out: JAK1 Inhibition IC50. As to the method: (§1) JAK1, JAK2, JAK3, and Tyk-2 Enzyme Activity Assays
Sequence of JAK1 (P23458 whole entry): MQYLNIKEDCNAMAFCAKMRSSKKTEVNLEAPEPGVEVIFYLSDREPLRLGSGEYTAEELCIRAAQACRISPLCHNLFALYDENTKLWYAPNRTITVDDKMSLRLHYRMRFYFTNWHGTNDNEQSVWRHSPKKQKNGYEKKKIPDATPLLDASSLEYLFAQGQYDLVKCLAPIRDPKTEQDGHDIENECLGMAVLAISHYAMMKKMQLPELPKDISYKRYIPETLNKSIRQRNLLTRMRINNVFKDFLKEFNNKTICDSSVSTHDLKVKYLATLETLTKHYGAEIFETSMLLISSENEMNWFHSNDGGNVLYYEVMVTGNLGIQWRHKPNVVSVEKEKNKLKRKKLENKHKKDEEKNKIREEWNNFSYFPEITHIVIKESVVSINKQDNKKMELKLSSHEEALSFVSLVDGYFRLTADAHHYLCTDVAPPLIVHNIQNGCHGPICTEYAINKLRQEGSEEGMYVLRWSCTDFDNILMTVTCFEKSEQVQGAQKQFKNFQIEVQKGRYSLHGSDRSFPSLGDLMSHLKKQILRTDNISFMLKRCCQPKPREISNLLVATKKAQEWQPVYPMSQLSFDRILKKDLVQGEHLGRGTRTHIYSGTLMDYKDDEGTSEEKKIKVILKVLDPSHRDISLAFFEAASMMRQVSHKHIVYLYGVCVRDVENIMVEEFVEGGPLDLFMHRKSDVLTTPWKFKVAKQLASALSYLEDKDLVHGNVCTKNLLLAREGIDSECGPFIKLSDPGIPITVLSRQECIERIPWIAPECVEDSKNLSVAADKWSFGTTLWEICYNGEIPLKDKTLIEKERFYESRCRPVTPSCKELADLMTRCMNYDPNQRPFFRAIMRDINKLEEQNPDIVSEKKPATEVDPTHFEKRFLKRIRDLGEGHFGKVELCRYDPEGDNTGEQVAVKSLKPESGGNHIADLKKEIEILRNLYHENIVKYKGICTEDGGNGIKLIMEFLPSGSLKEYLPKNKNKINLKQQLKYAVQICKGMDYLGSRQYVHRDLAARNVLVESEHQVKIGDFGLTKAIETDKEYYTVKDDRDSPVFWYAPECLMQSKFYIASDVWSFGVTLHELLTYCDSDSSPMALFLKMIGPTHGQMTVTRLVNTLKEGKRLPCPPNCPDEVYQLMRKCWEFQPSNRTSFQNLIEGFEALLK
(§2) The inhibitory potency of candidate compounds of JAK1, JAK2, and Tyk-2 was done at Thermo Fisher Scientific in their Selectscreen using a Z-lyte assay. Following are the assay details for each enzyme.
JAK: The 2×JAK-enzyme/Tyr 06 mixture is prepared in 50 mM HEPES pH 6.5, 0.01% BRIJ-35, 10 mM MgCl2, 1 mM EGTA, 0.02% NaN3. The final 10 μL of the Kinase Reaction consists of 21.2-91.5 ng JAK and 2 M Tyr 06 in 50 mM HEPES pH 7.0, 0.01% BRIJ-35, 10 mM MgCl2, 1 mM EGTA, 0.01% NaN3. After the one hour Kinase Reaction incubation, 5 μL of a 1:128 dilution of Development Reagent is added.
(§3) Data reduction for JAK1, JAK2 and TYK2 is done the same, independent of the enzyme run. In summary, background signal is defined in the absence of enzyme and uninhibited signal is defined in the presence of vehicle (2% DMSO) alone. Compounds were evaluated in an 11 point dose-response ranging from […] to 0.34 nM. IC50 values of compounds are determined using a 4 parameter logistical fit of emission ratio as a function of the concentration of compound.

Experiment [1] concerns IL-2 stimulated STAT5 phosphorylation on Tyr694 (JAK1/3). The experiment in a line: JAK1/3 cellular target modulation: IL-2 stimulated phospho-STAT5 in PBMC. To be noted: human PBMC, IL-2 25 ng/ml; read-out: IL2-STAT5 IC50. Type of experiment: cell-based. From the text:
(§4) JAK Cellular Target Modulation Assays
(§5) Target modulation was based upon the ability of a compound to inhibit JAK isoform specific phosphorylation of selected substrates. IL-2 stimulated STAT5 phosphorylation on Tyr694 was used to assess JAK1/3 compound selectivity. GM-CSF stimulated STAT5 phosphorylation on Tyr694 was used to assess JAK2 compound selectivity. IFNγ stimulated STAT1 phosphorylation on Tyr701 was used to assess JAK1/2 compound selectivity. IL-12 stimulated STAT4 phosphorylation on Tyr693 was used to assess JAK2/TYK2 compound selectivity. For all four assays, human PBMC from frozen stocks were thawed, pelleted, resuspended in complete media (90% RPMI, 10% heat inactivated FBS, 10 mM HEPES, 47 μM 2-ME, pen/strep) and placed in wells of a 96 well V-bottom plate at 200,000 per well in 120 μl complete media. Compounds were added as 15 μl per well of 10× working stock solutions in complete media with 1% DMSO (or medium with 1% DMSO for controls) and placed on a plate shaker in a 37° C. incubator with 5% CO2 for 1 hour with gentle shaking (setting of 3). Stimulation used the addition of soluble cytokines. For the JAK1/3 phospho-STAT5 assay, 15 μl of 10× working stock recombinant human IL-2 was added to a final concentration of 25 ng/ml. For the JAK2 phospho-STAT5 assay, 15 μl of 10× working stock recombinant human GM-CSF was added to a final concentration of 5 ng/ml. For the JAK1/2 phospho-STAT1 assay, 15 μl of 10× working stock of recombinant human IFNγ was added to a final concentration of 10 ng/ml. For the JAK2/TYK2 phospho-STAT4 assay, 15 μl of 10× working stock of recombinant human IL-12 was added to a final concentration of 1.7 ng/ml. Plates were then placed back on the plate shaker in the incubator for an additional 5, 5, 10, and 25 minutes respectively upon which the plates were removed from the incubator, sealed with a plate sealer and the cells pelleted at 400×g for 5 minutes. After pelleting, the media was removed by aspiration and the cells were lysed in assay specific cell lysis buffer. The levels of phospho-STATS were determined using a Phospho (Tyr694) STAT5a,b Whole Cell Lysate kit from Meso Scale Discovery. Levels of phospho-STAT1 were determined using a CST-PathScan Phospho-STAT1 (Tyr701) Sandwich ELISA kit. Levels of phospho-STAT4 were determined using a Phospho-STAT4 (Tyr693) Whole Cell Lysate kit from Meso Scale Discovery.

For the next experiment, the target named is JAK3 (a.a. 781-1124) (Homo sapiens (Human), UniProt P52333). In words: JAK3 enzyme activity assay (SRCtide phosphorylation, Caliper). Type of experiment: biochemical. To be noted: 1 uM ATP; read-out: JAK3 Inhibition IC50. As to the method:
as §1
Kinase reactions were run in a 384-well Greiner plate with 2% final DMSO concentration under the buffer conditions of 20 mM HEPES, pH 7.5, 10 mM MgCl2, 0.01% BSA, and 0.0005% Tween-20. The kinase reaction components were 2.5 nM JAK3, 1 μM SRCtide peptide and 1 uM ATP. Examples were tested in dose-response starting at 2 M (11 concentrations, 3-fold serial dilution, duplicate reactions). The reactions were incubated at room temperature for 40 minutes, then stopped by adding a 1:1 volume of 30 mM EDTA in 20 mM HEPES, pH 7.5 (15 mM EDTA final). After the reaction was stopped, the phosphorylated and unphosphorylated peptides were separated and quantified using a Caliper LC3000/EZ-Reader system and HTS Well Analyzer Software (Caliper, A PerkinElmer Company, Hopkinton, Mass.). GraFit (Erithacus Software Ltd., Horley, U.K.) was used to calculate inhibitor potency by fitting dose-response data to the 4-parameter logistical IC50 equation.

The next experiment concerns the target Tyk-2 (Homo sapiens (Human), UniProt P29597). In words: Tyk-2 enzyme activity assay (Thermo Fisher SelectScreen, Z-lyte). Type of experiment: biochemical. To be noted: read-out: Tyk-2 Inhibition IC50. On the procedure:
as §1, §2
TYK2: The 2×TYK2/Tyr 03 mixture is prepared in 50 mM HEPES pH 6.5, 0.01% BRIJ-35, 10 mM MgCl2, 1 mM EGTA, 0.02% NaN3. The final 10 μL Kinase Reaction consists of 3.75-15 ng TYK2 and 2 M Tyr 03 in 50 mM HEPES pH 7.0, 0.01% BRIJ-35, 10 mM MgCl2, 1 mM EGTA, 0.01% NaN3. After the one hour KinaseReaction incubation, 5 μL of a 1:4096 dilution of Development Reagent A is added.
as §3

For the next experiment, the target named is JAK2 (Homo sapiens (Human), UniProt O60674). In words: JAK2 enzyme activity assay (Thermo Fisher SelectScreen, Z-lyte). To be noted: read-out: JAK2 Inhibition IC50. Format: biochemical. As to the method:
as §1, §2
JAK2: The 2×JAK2/Tyr 06 mixture is prepared in 50 mM HEPES pH 7.5, 0.01% BRIJ-35, 10 mM MgCl2, 1 mM EGTA. The final 10 μL Kinase Reaction consists of 0.12-0.5 ng JAK2 and 2 M Tyr 06 in 50 mM HEPES pH 7.5, 0.01% BRIJ-35, 10 mM MgCl2, 1 mM EGTA. After the one hour Kinase Reaction incubation, 5 μL of a 1:128 dilution of Development Reagent A is added.
as §3

The subject of experiment [2] is IFNγ stimulated STAT1 phosphorylation on Tyr701 (JAK1/2). The experiment in a line: JAK1/2 cellular target modulation: IFNγ stimulated phospho-STAT1 in PBMC. The conditions noted are these: human PBMC, IFNγ 10 ng/ml; read-out: Infγ-STAT1 IC50. Format: cell-based.
Source text: as §4, §5

Sequence of JAK3 (a.a. 781-1124) (P52333 781-1124): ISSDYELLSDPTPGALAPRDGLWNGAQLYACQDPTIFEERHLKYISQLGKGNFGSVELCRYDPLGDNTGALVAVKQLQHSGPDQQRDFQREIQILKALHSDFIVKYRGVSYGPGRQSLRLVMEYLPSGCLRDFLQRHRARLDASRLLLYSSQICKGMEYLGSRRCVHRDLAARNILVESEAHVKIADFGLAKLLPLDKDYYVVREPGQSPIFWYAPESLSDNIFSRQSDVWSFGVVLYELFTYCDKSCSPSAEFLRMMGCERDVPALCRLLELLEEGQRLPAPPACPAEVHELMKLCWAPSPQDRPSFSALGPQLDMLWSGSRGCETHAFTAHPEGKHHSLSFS
Sequence of Tyk-2 (P29597 whole entry): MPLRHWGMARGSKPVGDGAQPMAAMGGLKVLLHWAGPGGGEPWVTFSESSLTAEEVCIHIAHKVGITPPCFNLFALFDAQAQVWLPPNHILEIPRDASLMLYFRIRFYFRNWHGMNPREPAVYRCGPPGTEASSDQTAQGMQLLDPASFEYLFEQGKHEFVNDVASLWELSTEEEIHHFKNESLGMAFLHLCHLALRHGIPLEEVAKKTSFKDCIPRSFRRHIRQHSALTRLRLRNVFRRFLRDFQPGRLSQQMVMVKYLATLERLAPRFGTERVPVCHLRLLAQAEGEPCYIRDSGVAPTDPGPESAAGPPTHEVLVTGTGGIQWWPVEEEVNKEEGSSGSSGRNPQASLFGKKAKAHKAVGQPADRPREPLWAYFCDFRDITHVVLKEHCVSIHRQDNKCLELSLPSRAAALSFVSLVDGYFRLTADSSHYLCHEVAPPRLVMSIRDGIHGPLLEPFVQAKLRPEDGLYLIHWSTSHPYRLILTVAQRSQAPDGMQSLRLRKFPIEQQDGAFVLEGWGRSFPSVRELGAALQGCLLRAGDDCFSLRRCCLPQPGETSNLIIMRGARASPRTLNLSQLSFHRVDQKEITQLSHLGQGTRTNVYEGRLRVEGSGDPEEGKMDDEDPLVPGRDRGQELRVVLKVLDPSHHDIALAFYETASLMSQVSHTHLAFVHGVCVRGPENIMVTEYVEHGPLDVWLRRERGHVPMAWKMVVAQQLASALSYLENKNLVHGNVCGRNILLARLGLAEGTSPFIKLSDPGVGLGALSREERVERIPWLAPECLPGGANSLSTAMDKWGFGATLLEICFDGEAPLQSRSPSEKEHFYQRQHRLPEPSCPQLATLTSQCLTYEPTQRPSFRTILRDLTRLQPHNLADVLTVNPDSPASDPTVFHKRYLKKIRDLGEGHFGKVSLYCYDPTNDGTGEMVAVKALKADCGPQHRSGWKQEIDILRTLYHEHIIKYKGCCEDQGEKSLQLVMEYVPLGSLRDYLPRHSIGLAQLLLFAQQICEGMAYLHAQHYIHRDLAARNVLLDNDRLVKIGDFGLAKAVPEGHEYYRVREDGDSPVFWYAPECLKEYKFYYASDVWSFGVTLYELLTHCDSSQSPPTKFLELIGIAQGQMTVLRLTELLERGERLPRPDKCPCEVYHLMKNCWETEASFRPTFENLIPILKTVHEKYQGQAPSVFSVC
Sequence of JAK2 (O60674 whole entry): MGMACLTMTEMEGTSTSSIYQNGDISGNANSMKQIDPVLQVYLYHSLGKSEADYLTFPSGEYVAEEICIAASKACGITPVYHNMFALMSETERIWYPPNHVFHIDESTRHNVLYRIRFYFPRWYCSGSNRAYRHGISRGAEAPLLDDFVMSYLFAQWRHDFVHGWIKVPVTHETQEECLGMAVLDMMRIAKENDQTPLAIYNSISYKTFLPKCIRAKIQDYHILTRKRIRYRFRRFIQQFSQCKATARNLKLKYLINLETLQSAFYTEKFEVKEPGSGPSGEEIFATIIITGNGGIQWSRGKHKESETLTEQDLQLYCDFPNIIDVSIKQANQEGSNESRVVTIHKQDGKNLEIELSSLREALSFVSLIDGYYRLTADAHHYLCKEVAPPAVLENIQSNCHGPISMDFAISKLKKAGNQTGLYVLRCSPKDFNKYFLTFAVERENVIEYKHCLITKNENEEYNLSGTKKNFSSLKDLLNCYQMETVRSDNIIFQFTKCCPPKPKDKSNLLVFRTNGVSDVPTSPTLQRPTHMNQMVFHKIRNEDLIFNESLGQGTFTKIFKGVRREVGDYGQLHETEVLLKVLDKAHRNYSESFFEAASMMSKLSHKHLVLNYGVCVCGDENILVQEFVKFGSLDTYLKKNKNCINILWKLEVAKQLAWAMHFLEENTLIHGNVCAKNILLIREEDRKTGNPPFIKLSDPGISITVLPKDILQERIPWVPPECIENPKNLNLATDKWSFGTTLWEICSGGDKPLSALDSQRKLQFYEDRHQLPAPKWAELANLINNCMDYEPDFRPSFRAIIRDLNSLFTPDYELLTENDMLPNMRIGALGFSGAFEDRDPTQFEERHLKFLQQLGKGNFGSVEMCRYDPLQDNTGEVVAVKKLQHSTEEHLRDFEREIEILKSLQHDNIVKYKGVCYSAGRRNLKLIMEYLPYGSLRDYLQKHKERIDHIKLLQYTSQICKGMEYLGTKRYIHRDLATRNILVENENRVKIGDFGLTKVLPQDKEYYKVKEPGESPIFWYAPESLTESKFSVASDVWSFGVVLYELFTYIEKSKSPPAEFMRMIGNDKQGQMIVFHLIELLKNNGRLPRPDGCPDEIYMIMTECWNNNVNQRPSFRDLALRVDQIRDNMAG

One may read the IC50 as the midpoint of a concentration-inhibition curve. For the compound `CNCCOc1cccc(-c2cnc3[nH]ccc3c2N[C@@H]2CCCN(C(=O)CC#N)C2)n1` [Example 58, (R)-3-(3-((5-(6-(2-(methylamino)ethoxy)pyridin-2-yl)-1H-pyrrolo[2,3-b]pyridin-4-yl)amino)piperidin-1-yl)-3-oxopropanenitrile hydrochloride], the IC50 was not above 10 nM on JAK1; 100 to 1000 nM in experiment [1]; 10 to 100 nM at JAK3 (a.a. 781-1124); 100 to 1000 nM at Tyk-2; 100 to 1000 nM at JAK2; more than 1000 nM in experiment [2].

As to `CNC(=O)c1cnc(-c2cnc3[nH]ccc3c2N[C@@H]2CCCN(C(=O)CC#N)C2)s1` [Example 53, (R)-2-(4-((1-(2-cyanoacetyl)piperidin-3-yl)amino)-1H-pyrrolo[2,3-b]pyridin-5-yl)-N-methylthiazole-5-carboxamide], the IC50 was not above 10 nM on JAK1; not above 100 nM in experiment [1]; not above 10 nM at JAK3 (a.a. 781-1124); not above 10 nM on Tyk-2; not above 10 nM at JAK2; not above 100 nM in experiment [2].

`CC(=O)c1cnc(-c2cnc3[nH]ccc3c2N[C@@H]2CCCN(C(=O)CC#N)C2)o1` [Example 66, (R)-3-(3-((5-(5-acetyloxazol-2-yl)-1H-pyrrolo[2,3-b]pyridin-4-yl)amino)piperidin-1-yl)-3-oxopropanenitrile]: the IC50 was not above 10 nM on JAK1; not above 100 nM in experiment [1]; not above 10 nM on JAK3 (a.a. 781-1124); 10 to 100 nM on Tyk-2; 10 to 100 nM at JAK2; 100 to 1000 nM in experiment [2].

With `N#CCC(=O)N1CCC[C@@H](Nc2c(-c3cscn3)cnc3[nH]ccc23)C1` [Example 1, (R)-3-oxo-3-(3-((5-(thiazol-4-yl)-1H-pyrrolo[2,3-b]pyridin-4-yl)amino)piperidin-1-yl)propanenitrile], the IC50 was in the range of 10 to 100 nM on JAK1; 100 to 1000 nM in experiment [1]; 10 to 100 nM at JAK3 (a.a. 781-1124); 10 to 100 nM on Tyk-2; 10 to 100 nM on JAK2; 100 to 1000 nM in experiment [2].

Turning to `N#CCC(=O)N1CCC[C@@H](Nc2c(-c3nc(C(N)=O)co3)cnc3[nH]ccc23)C1` [Example 14, (R)-2-(4-((1-(2-cyanoacetyl)piperidin-3-yl)amino)-1H-pyrrolo[2,3-b]pyridin-5-yl)oxazole-4-carboxamide], the IC50 is not above 10 nM at JAK1; 100 to 1000 nM in experiment [1]; not above 10 nM on JAK3 (a.a. 781-1124); 10 to 100 nM at Tyk-2; 10 to 100 nM at JAK2; more than 1000 nM in experiment [2].

Regarding `Cc1ncc(-c2cnc3[nH]ccc3c2N[C@@H]2CCCN(C(=O)CC#N)C2)s1` [Example 3, (R)-3-(3-((5-(2-methylthiazol-5-yl)-1H-pyrrolo[2,3-b]pyridin-4-yl)amino)piperidin-1-yl)-3-oxopropanenitrile], the IC50 on JAK1 is 10 to 100 nM; in experiment [1], 100 to 1000 nM; at JAK3 (a.a. 781-1124) it was 10 to 100 nM; on Tyk-2 it was 100 to 1000 nM; at JAK2, 100 to 1000 nM; in experiment [2], more than 1000 nM.

Turning to `N#CCC(=O)N1CCC[C@@H](Nc2c(-c3cncs3)cnc3[nH]ccc23)C1` [Example 16, (R)-3-oxo-3-(3-((5-(thiazol-5-yl)-1H-pyrrolo[2,3-b]pyridin-4-yl)amino)piperidin-1-yl)propanenitrile], the IC50 at JAK1 is 10 to 100 nM; in experiment [1], 100 to 1000 nM; on JAK3 (a.a. 781-1124), 10 to 100 nM; on Tyk-2, 100 to 1000 nM; on JAK2, 100 to 1000 nM; in experiment [2], more than 1000 nM.

Take `N#CCC(=O)N1CCC[C@@H](Nc2c(-c3nnc[nH]3)cnc3[nH]ccc23)C1` [Example 11, (R)-3-(3-((5-(4H-1,2,4-triazol-3-yl)-1H-pyrrolo[2,3-b]pyridin-4-yl)amino)piperidin-1-yl)-3-oxopropanenitrile]: the IC50 was 10 to 100 nM at JAK1; more than 1000 nM in experiment [1]; 10 to 100 nM on JAK3 (a.a. 781-1124); 100 to 1000 nM on Tyk-2; 10 to 100 nM at JAK2; more than 1000 nM in experiment [2].

As for `N#CCC(=O)N1CCC[C@@H](Nc2c(C#N)cnc3[nH]ccc23)C1` [Example 25, (R)-4-((1-(2-cyanoacetyl)piperidin-3-yl)amino)-1H-pyrrolo[2,3-b]pyridine-5-carbonitrile], the IC50 at JAK1 is not above 10 nM; in experiment [1], not above 100 nM; at JAK3 (a.a. 781-1124), 10 to 100 nM; on Tyk-2 it was 10 to 100 nM; on JAK2, 10 to 100 nM; in experiment [2] it was 100 to 1000 nM.

For the compound `CS(=O)(=O)c1cccc(-c2cnc3[nH]ccc3c2N[C@@H]2CCCN(C(=O)CC#N)C2)c1` [Example 59, (R)-3-(3-((5-(3-(methylsulfonyl)phenyl)-1H-pyrrolo[2,3-b]pyridin-4-yl)amino)piperidin-1-yl)-3-oxopropanenitrile], the IC50 on JAK1 is not above 10 nM; in experiment [1], 100 to 1000 nM; at JAK3 (a.a. 781-1124), 100 to 1000 nM; at Tyk-2, more than 1000 nM; at JAK2, 100 to 1000 nM; in experiment [2], more than 1000 nM.

Regarding `Cn1ccnc1-c1cnc2[nH]ccc2c1N[C@@H]1CCCN(C(=O)CC#N)C1` [Example 17, (R)-3-(3-((5-(1-methyl-1H-imidazol-2-yl)-1H-pyrrolo[2,3-b]pyridin-4-yl)amino)piperidin-1-yl)-3-oxopropanenitrile], the IC50 (on JAK1; in experiment [1]; on JAK3 (a.a. 781-1124); at Tyk-2; on JAK2) was more than 1000 nM each time.
